Earlier results on 4 compounds are cited in patent publication US4554271A, “Use of high doses of derivatives of 6α-methylprednisolone for the acute treatment of stroke syndrome” (The Upjohn Company, priority 1984, dated 1985).

SMILES strings stand for the structures. Where a name gives a salt, the structure may show the parent alone. Read-outs that look alike come from different tables or passages of the source.

Data set [1] has as its system canine middle cerebral artery (MCA). The conditions noted are these: canine MCA embolization, embolectomy at 6 hours; DMSO 2 gm/kg.
Data set [2] deals with (Na^+ +K^+)-ATPase. The following applies: cat spinal cord; large intravenous doses.
The subject of the next data set is lipid peroxide formation. The conditions noted are these: cat spinal cord; large intravenous doses.
In a further data set the test system is motor neuron. The following applies: cat; large intravenous doses.
Data set [3] has as its system ischemia-induced neurological deficits. The following applies: gerbils; title of cited paper.
Data set [4] deals with cyclic guanosine 3',5'-monophosphate (cyclic GMP). The conditions noted are these: cat.
In data set [5] the test system is (Na^+ +K^+)-ATPase. The following applies: for (Na^+ +K^+)-ATPase activity in the injured cord: cat.
Data set [6] has as its system spinal cord-injured animals. The conditions noted are these: comparable doses (15 to 30 mg/kg) soon after injury; other studies.
The subject of another data set is cerebral ischemia. The following applies: anesthetized gerbil; 35 mg/kg; bilateral occlusion of the carotid arteries.
Data set [7] relates to adenylate cyclase systems.
Data set [8] deals with cardiac, renal, and hepatic ischemia. The conditions noted are these: in vivo.
The conditions of data set [9]: single 30-mg/kg dose.
Where [10] appears, read: 15- or 30-mg/kg intravenous dose given 30 minutes after trauma, earlier studies.

In the case of `C[S+](C)[O-]` [DMSO, dimethyl sulfoxide], in data set [1], the “infarction of the brain” value was “no infarction”.
`C[C@H]1C[C@@H]2[C@H]([C@@H](O)C[C@@]3(C)[C@H]2CC[C@]3(O)C(=O)COC(=O)CCC(=O)O)[C@@]2(C)C=CC(=O)C=C12` [methylprednisolone sodium succinate, 1-dehydro-6α-methylhydrocortisone 21-hemisuccinate sodium salt]: the “spinal cord (Na^+ +K^+)-ATPase activity” value with (Na^+ +K^+)-ATPase [2] was “enhancement”. Moreover, the lipid peroxide formation entry with lipid peroxide formation is recorded as “attenuation”. In the data set with motor neuron, the “impulse conduction along the myelinated portion of the motor axon” value was “accelerated” and the “motor neuron resting membrane potentials” value is given as “hyperpolarization”.
`C=CCN1CC[C@]23c4c5ccc(O)c4O[C@H]2C(=O)CC[C@@]3(O)[C@H]1C5` [naloxone]: the “reversal of ischemia-induced neurological deficits” value in data set [3] is “Failure”.
For `C[C@H]1C[C@@H]2[C@H]([C@@H](O)C[C@@]3(C)[C@H]2CC[C@]3(O)C(=O)CO)[C@@]2(C)C=CC(=O)C=C12` [methylprednisolone, 1-Dehydro-6α-methylhydrocortisone], for the setting “cat, single intravenous administration”, the “duration of its pharmacological actions” value is given as “roughly 3 hours”. Also, the “spinal cord tissue levels of methylprednisolone at which each of the effects is apparent” value (cat, single intravenous dose of 30 mg/kg) was “around 1.3 μg/gm wet weights”. In addition, the “half-life in cat spinal cord” value (single intravenous administration, 30 mg/kg) is listed as “roughly 3 hours”. The “lipid peroxidation at 1 hour after injury” value in the data set with lipid peroxidation (setting [10]) was “significantly reduce”. In addition, in the data set on lipid peroxidation (cat, 15 or 30 mg/kg i.v. at 30 minutes after injury, read at 1 hour), the “injury-induced increase in fluorescence (lipid peroxy products) in spinal segment” value is listed as “completely prevented”. The “injury-induced increase in cyclic GMP content in spinal segment” value in [4] (15 or 30 mg/kg i.v. at 30 minutes after injury, read at 1 hour) is given as “completely prevented”. The “elevation in cyclic GMP” value in [4] (60-mg/kg dose) is “did not prevent”. Moreover, the “(Na^+ +K^+)-ATPase activity at 1 hour after injury” value in the data set on (Na^+ +K^+)-ATPase [5] (setting [10]) was “enhance”. Moreover, the “(Na^+ +K^+)-ATPase activity in the injured cord” value is listed as “striking increase” in the data set with (Na^+ +K^+)-ATPase [5] (30-mg/kg dose) and “depression in activity” in the data set on (Na^+ +K^+)-ATPase [5] (60-mg/kg dose). Further, in [6], the “recovery and tissue preservation in spinal cord-injured animals” value is listed as “significantly greater”. Further, the “survival after cerebral ischemia” value with cerebral ischemia is given as “improved survival”. In addition, in data set [7] (barbiturate-anesthetized gerbils, pretreatment 30 mg/kg, 30 min. prior to carotid ligation), the “damaging effect (adenylate cyclase systems) of 60 minutes occlusion plus 15 minutes recirculation” value is recorded as “prevented”. In addition, in data set [7] (gerbils, preliminary work), the “chronic (7 days) enzyme damage elicited by 15 minutes of bilateral stroke” value is reported as “prevented”. Moreover, the “relieving cardiac, renal, and hepatic ischemia” value in [8] is “effective”. Further, the harmful effects entry in data set [9] is reported as “virtually without harmful effects”.
